Assay [1] deals with cultured rabbit corneal endothelium. The assay can be described thus: Pharmacological regulation of morphology and mitosis in cultured rabbit corneal endothelium. It is filed as cell-based.
The test system of assay [2] is rabbit corneal endothelial cells. In words: Cell shape morphometry of cultured rabbit corneal endothelial cells (Example 1). Particulars: for potentiation of EGF-induced elongation: 10^-5 M (equimolar), in presence of EGF; for rank order of potency on corneal endothelial cell shape: cyclooxygenase inhibitors, with EGF; for cell shape at confluence: cells cultured seven days in the presence of the agent; for distribution of major axes (Amax): versus control.

The subject of assay [3] is cultured corneal endothelial cells. Particulars: control cultures and cultures with EGF added.
The subject of assay [4] is Corneal endothelial cells. In words: f-actin labelling with rhodamine labelled phallacidin in cultured corneal endothelial cells. Particulars: 1 week in culture.
Assay [5] concerns endothelium of excised corneas. The assay can be described thus: Shape of the cells near the wound boundary in excised corneas.
The test system of assay [6] is Corneal endothelial cells. The assay can be described thus: Transmission electron microscopy of pharmacologically modulated endothelial phenotypes. Particulars: treated cultures.
The test system of assay [7] is most cell culture systems. Particulars: cited from earlier work.
Assay [8] deals with endothelium of excised corneas. The assay can be described thus: Cell migration near the wound boundary in excised corneas. Conditions: EGF 10 ng/ml, indomethacin 1 μM in M-K medium. It is filed as cell-based, New Zealand white rabbits.
The next assay concerns cat corneal endothelium. Particulars: 22° C.; cited from earlier work.
Assay [9] concerns endothelium of excised corneas. In words: Endothelial wound area / closure in excised corneas (specular microscopy).
Where [10] appears, read: agent added to TPA containing medium.

Entries after “also recorded” stand apart in the source; their conditions may differ. Like-named read-outs stand apart in the source and are kept apart here.

In the case of `C=C[C@@]1(C)CC(=O)[C@]2(O)[C@@]3(C)[C@@H](O)CCC(C)(C)[C@@H]3[C@H](O)[C@H](OC(C)=O)[C@@]2(C)O1` [Forskolin], in [1] (agent added with EGF and INDO), the “effect on EGF and INDO-induced elongation” value was “prevented”; the “effect on cell density / mitosis in presence of EGF and INDO” value is given as “inhibited endothelial mitosis”.

Consider `CCCCCCCCCCCCCC(=O)O[C@@H]1[C@@H](C)[C@@]2(O)[C@@H](C=C(CO)C[C@]3(O)C(=O)C(C)=C[C@@H]23)[C@H]2C(C)(C)[C@]12OC(C)=O` [TPA], for which, in [1], the “cell density / mitosis, agent alone” value is “increased cell density” and the “cell shape / elongation, agent alone” value was “caused elongation”.

On to `C[C@@H]1C[C@H]2[C@@H]3CCC4=CC(=O)C=C[C@]4(C)[C@@]3(F)[C@@H](O)C[C@]2(C)[C@@]1(O)C(=O)CO` [dexamethasone], for which, in assay [2], the “potentiation of EGF-induced elongation” value is on record as “has no effect”.

In the case of `CC(C(=O)O)c1ccc(-c2ccccc2)c(F)c1` (stereo not shown) [flurbiprofen], in [2], the “rank order of potency on corneal endothelial cell shape” value (from here on “rank order of potency”) was “indomethacin<suprofen<flurbiprofen”.

Regarding `COc1ccc2c(c1)c(CC(=O)O)c(C)n2C(=O)c1ccc(Cl)cc1` [indomethacin], in assay [2], the “cell shape at confluence” value is recorded as “elongated at confluence with a stellate shape” and the “rank order of potency” value is “indomethacin<suprofen<flurbiprofen”. For the same compound, the “distribution of major axes (Amax)” value in [2] (cultured with agent) was “increases”. In addition, in assay [3], the “synthesis of pgE2” value was “totally inhibits”. In assay [1] (setting [10]), the “effect on TPA-induced elongation” value is “marked enhancement of cellular elongation” and the “effect on cell density / mitogenic response to TPA” value is “had no effect on final cell density”. Besides, in assay [4], the f-actin staining pattern result is listed as “diffuse reticular staining throughout the cytoplasm”.

With `CCCCC[C@H](O)/C=C/[C@@H]1[C@@H](C/C=C\CCCC(=O)O)[C@@H](O)C[C@H]1O` [pgF2α], the “effect on the elongation of Amax produced by EGF and indomethacin” value in [2] (increasing concentrations added to cells grown with EGF and indomethacin) was “has no effect”.

In the case of `CC(C(=O)O)c1ccc(C(=O)c2cccs2)cc1` (stereo not shown) [suprofen], in [2], the “potentiation of EGF-induced elongation” value is reported as “Potentiation of EGF-induced elongation also occurs” and the “rank order of potency” value is “indomethacin<suprofen<flurbiprofen”.

Regarding Cholera toxin, in [1], the “cell shape / elongation, agent alone” value is “had no effect on cell shape”; the “effect on EGF and INDO-induced elongation” value is given as “antagonized”; the “effect on EGF-induced elongation” value is “EGF-induced elongation did not occur”; the “effect on TPA-induced elongation” value is “did not prevent elongation”. For the same compound, in assay [1], the “effect on cell density / mitogenic response to TPA” value is “potentiate the mitogenic response”; the “effect on cell density / mitosis in presence of EGF and INDO” value is recorded as “without preventing increased cell density”; the “effect on the mitogenic effect of EGF” value is listed as “potentiated”.

Pertussis toxin: in assay [1], the “cell density / mitosis, agent alone” value is reported as “had no effect on either parameter”; the “cell density in combination with EGF or INDO” value is “without significantly altering cell density”; the “cell shape / elongation, agent alone” value is on record as “had no effect on either parameter”; the “cell shape in combination with EGF or INDO” value is “restored polygonal cell shape”.

In the case of epidermal growth factor [EGF], the cell density entry in assay [2] (at confluence, versus control conditions) was “little or no effect”. Moreover, the “cell shape at confluence” value in assay [2] is “spindle-shaped at confluence”. Moreover, in assay [2] (cultured with agent), the “distribution of major axes (Amax)” value is recorded as “significantly greater distribution of major axes”. For the same compound, the “ratio Per/Amax” value in assay [2] (cultured with agent, perfectly round cell 3.14) is listed as “decreases significantly”. In addition, the “synthesis of pgE2” value in assay [3] is “unaffected”. Moreover, the “relative average percent change of the shape factor, difference from control (FIG. 3)” value in assay [5] (EGF+indomethacin at 50, 100, 150 minutes, EGF at 100, 150 minutes, p<0.001) was “significantly different from the control group”. Further, in assay [5] (one cornea of each group, control 200 minutes), the “time of the peak of the shape change” value was 150 min. For the same compound, the “ultrastructure by transmission electron microscopy” value in assay [6] is listed as “Junctional complexes were absent”. For the same compound, in [7], the “time at which DNA synthesis reaches a maximum” value was “about 22 hours” and the “time at which increased DNA synthesis begins after addition” value is “approximately 15 hours”. In addition, in [8], the “migration of cells near the wound boundary compared with the control group” value is reported as “migrated significantly more; also recorded: significantly increased migration”. The “time for association to be complete” value with cat corneal endothelium is “approximately 120 minutes”. In [9] (EGF 10 ng/ml, indomethacin 1 μM in M-K medium), the “wound closure time compared with the control group” value is reported as “shortened the wound closure time”. In addition, the “time of maximum wound area after wounding” value in assay [9] (EGF 10 ng/ml, indomethacin 1 μM in M-K medium, control 20 minutes) worked out at 10 min. Also, the “time for wound area to decrease to 50% of the original size” value in assay [9] (EGF 10 ng/ml, indomethacin 1 μM in M-K medium, control about 240 minutes) was no more than 120 min. Moreover, the “time for wounds to close to 80% of the original size” value in [9] (after wounding, EGF treated) was no more than 250 min.

The values above are taken from US5036046A, “Method for enhancing healing of corneal endothelial wounds” (Eye Research Institute of Retina Foundation, Inc., priority 1988, dated 1991).
